Measurements from publication PMC11858653, “Design, Synthesis and Bioactive Evaluation of Topo I/c-MYC Dual Inhibitors to Inhibit Oral Cancer via Regulating the PI3K/AKT/NF-κB Signaling Pathway” (Molecules, 2025).
Where “and” joins values, the source holds several entries; their conditions need not be identical. Equal values may be shown once. Entries after “also recorded” stand apart in the source; their conditions may differ.

Columns and labels:
Cal27 cells = experiment: MDC staining for autophagy; assay type: cell-based, human; details: 24 h
Experimental: In order to determine whether compound 7be induced autophagy, Cal27 cells were incubated with compound 7be at different concentrations for 24 h. MDC staining was used to detect any MDC-positive vesicles in cells of Cal27 cells by confocal microscope (Figure 13a).

SV-HUC-1 = experiment: MTT assay, normal cell line SV-HUC-1; assay type: cell-based; details: SV-HUC1, 48 h, mean ± SD
Experimental: Having evaluated their Topo I inhibitory activity, the antiproliferative activity of the target compounds against some common human cancer cell lines (NCI-H460, A549, ACHN, Cal27 and MGC-803) and one normal cell line (SV-HUC-1) was tested via an MTT assay. TPT, the first Topo I inhibitor approved in clinics, and cisplatin (CDDP), a commonly selected anticancer drug for treating head and neck malignancies, were used as the positive controls.
Human oral cancer Cal27 cells were seeded in 96-well plates and incubated overnight in 180 μL of medium containing 10% Fetal Bovine Serum (Gibco, San Francisco, CA, USA). […] Then, 10 μL of 5 mg/mL MTT solution was added to each well and incubated at 37 °C for 4 h. After 4 h of incubation at 37 °C, the MTT-containing medium was removed and DMSO was added to each well and the absorbance at 570 nm and 630 nm was measured using a microplate reader (CYTATION 3, Burton, Westwood, NJ, USA). Survival/% = (mean OD of experimental group/mean OD of control group) × 100%. Each test was repeated at least three times.

A549 = experiment: MTT antiproliferative assay, A549; assay type: cell-based, human; details: Homo sapiens, A549, 48 h, mean ± SD
NCI-H460 = experiment: MTT antiproliferative assay, NCI-H460; assay type: cell-based, human; details: Homo sapiens, NCI-H460, 48 h, mean ± SD
[1] = In vivo biological safety evaluation; set-up: species or system BALB/c nude mice
Experimental: (§1) Nude mouse organ and tumor tissues fixed with neutral formalin solution were paraffin-embedded according to the conventional processing method. Sections were cut to a thickness of approximately 5 μm, placed on glass slides and dewaxed in an oven at 60 °C, stained for H&E and immunohistochemistry and finally visualized with the Cytation 5 imaging system.
(§2) For this assay, 130 SPF-grade BALB/c mice (female, 4–6 weeks old, 18–20 g) were obtained from Chang Zhou Cavens Laboratory Animal Ltd. (Changzhou, China). The in vivo activity experiments were commissioned by Nanjing OG Pharmaceuticals, Co., Ltd. (Nanjing, China) All mice were housed in plastic cages, fed, and watered under standard conditions and air filtration (22 ± 2 °C; 12 h light/dark cycles). Under aseptic conditions, human oral cancer Cal27 cells were inoculated subcutaneously in the right axilla of BALB/c nude mice. When the tumors had grown to about 85 mm^3, 24 […] mice with good growth status and good homogeneity of tumor size were selected and randomly divided into the following four groups of six mice each: (1) the model group; (2) the low-dose group; (3) the high-dose group; and (4) the positive drug group. The drug dose in the low-dose group was 10 mg/kg, which was injected intraperitoneally once every other day, for the duration of 21 days of administration; the drug dose in the high-dose group was 20 mg/kg, which was injected intraperitoneally once every other day, for the duration of 21 days of administration; and the drug dose in the cisplatin group was 2 mg/kg, which was injected intraperitoneally once every other day, for the duration of 21 days of administration. Normal tissues of the heart, liver, spleen, lung and kidney and half of the tumor tissues were fixed with 4% formalin solution and embedded in paraffin for histological analysis; the other half of the tumor tissues were preserved in liquid nitrogen, and the supernatant was extracted after milling the tissues and detected by Western blot.

[2] = system: LC3, p62, Beclin-1 in Cal27 cells; experiment: Western blot of autophagy-related markers; assay type: cell-based, human
Experimental: In addition, in order to further clarify the potential mechanism of autophagy induced by compound 7be, Western blot analysis was used to detect the expression of autophagy-related markers, including microtubule-associated protein 1 light chain protein-3 protein (LC3), p62 and Beclin-1. In the process of autophagy, LC3 is essential for the maturation of the autophagosome and its fusion with the lysosome.
After Cal27 cells had been treated with the desired concentration of each drug for 24 h, the cells were collected and the total protein was extracted. The cells were then separated on a gel of appropriate concentration and transferred to a PVDF membrane. After blocking with milk, the membrane was incubated with primary antibody at 4 °C overnight. Subsequently, the membrane was incubated with horseradish peroxidase-coupled secondary antibody for 2 h. Finally, the protein bands were used to detect the immunoreactive signal using an enhanced chemiluminescence kit.

MGC-803 = experiment: MTT antiproliferative assay, MGC-803; assay type: cell-based, human; details: Homo sapiens, MGC-803, 48 h, mean ± SD
[3] = system: human oral cancer Cal27 xenograft tumor; experiment: In vivo antitumor activity, Cal27 xenograft; set-up: species or system BALB/c nude mice; details: for relative tumor proliferation rate / tumor suppression rate / tumor growth inhibition (TGI): 21 days
Experimental: as §1, §2

[4] = 10 mg/kg i.p. once every other day
[5] = 20 mg/kg i.p. once every other day

## Cc1cc(C)c2c(n1)S(=O)(=O)c1c-2nc(NCCN2CCCCC2)c2ccccc12 [7be, 7,9-Dimethyl-5-((2-(piperidin-1-yl)ethyl)amino) pyrido[3′,2′:4,5]thieno[3,2-c]isoquinoline 11,11-dioxide]
Cal27 cells; Cal27, high concentrations (3 μM and 4 μM)
  MDC staining fluorescence: significant green fluorescence
Cal27 cells; Cal27, low concentrations (1 μM and 2 μM)
  MDC staining fluorescence: weak green fluorescence
SV-HUC-1
  IC50: 5.18 ± 1.77 µM
A549
  IC50: 3.32 ± 1.9 µM
NCI-H460
  IC50: 2920 ± 560 nM
[1]; 10 or 20 mg/kg i.p., 21 days
  body weight of mice during treatment: no significant decrease in body weight; also recorded: no considerable weight loss
[1]; end of treatment
  organ weight of mice: no significant difference
[1]; heart, liver, spleen, lung, kidney
  H&E staining of major organs: no lesions, degenerations or histopathological abnormalities
[2]
  expression of autophagy biomarkers Beclin-1 and LC3-II: upregulated
  expression of p62: decreased
MGC-803
  IC50: 1690 ± 240 nM
[3]; [4]
  relative tumor proliferation rate: 52.0%
  tumor suppression rate / tumor growth inhibition (TGI): 48.53% and 48.5%
[3]; [5]
  relative tumor proliferation rate: 34.1%
  tumor suppression rate / tumor growth inhibition (TGI): 64.7% and 64.73%
[3]; 20 mg/kg, Western blot of tumor tissue
  expressions of p62, COX-2 and Bcl-2 in tumor tissue: decreased
[3]; Ki67 immunostaining
  percentage of Ki67-positive cells in tumor tissue: decreased
